Values after ≈ are worked out from the molar mass of the structure shown. Blank lines part the entries; values can stand above or below the molecule they belong to.
Legend:
Test in all cases: ≥ marks a high value that may be exact or a test limit, other limits are often not marked, values filed in µg/mL are converted to µM
[1] = test system: Bacillus subtilis ATCC 6633
[2] = test system: Candida albicans ATCC 2002
[3] = test system: Escherichia coli ATCC 25922
Shigella dysenteriae = test system: Shigella dysenteriae
[4] = test system: Staphylococcus aureus ATCC 2592
Candida glabrata 090902 = test system: Candida glabrata 090902
[5] = test system: Enterococcus faecalis 981
[6] = test system: Nocardia asteroides 201118
[7] = test system: Psychrobacter faecalis X29
[8] = test system: Staphylococcus aureus ATCC 25923
Bacillus subtilis 168 = test system: Bacillus subtilis 168
[9] = test system: Candida albicans F7-39/IDE99
Escherichia coli B = test system: Escherichia coli B
[10] = test system: Micrococcus luteus CCM 144
[11] = test system: Pseudomonas aeruginosa ATCC 27853
Pseudomonas aeruginosa = test system: Pseudomonas aeruginosa
Staphylococcus aureus 1 = test system: Staphylococcus aureus 1
[12] = test system: Staphylococcus aureus ATCC 43300
Staphylococcus aureus = test system: Staphylococcus aureus
[13] = test system: Staphylococcus epidermidis
[14] = test system: Cronobacter muytjensii ATCC 51329
[15] = test system: Cronobacter sakazakii ATCC BAA-894
[16] = test system: Cronobacter sakazakii DPC 6440
[17] = test system: Cronobacter sakazakii DSM 4485
[18] = test system: Escherichia coli NCIMB 11843
[19] = test system: Klebsiella pneumoniae NCIMB 13218
[20] = test system: Pseudomonas fluorescens NCIMB 9046
[21] = test system: Salmonella enterica subsp. enterica serovar Typhimurium LT2
[22] = test system: Staphylococcus aureus NCTC 8325-4
[23] = test system: Staphylococcus aureus Newman
[24] = test system: Staphylococcus aureus RF122
[25] = test system: Staphylococcus aureus RN4220
[26] = test system: Staphylococcus aureus SA113
[27] = test system: Bacillus subtilis ATCC 23857
[28] = test system: Candida albicans ATCC 64550
[29] = test system: Acinetobacter baumannii ATCC 7978
[30] = test system: Klebsiella pneumoniae WGLW2
[31] = test system: Pseudomonas aeruginosa PA14
[32] = test system: Staphylococcus aureus ATCC 29231
[33] = test system: Pseudomonas aeruginosa PAO1

Compound: CC(C)C[C@H](NC(=O)CNC(=O)[C@@H](NC(=O)[C@H](CCCCN)NC(=O)CNC(=O)[C@H](C)NC(=O)[C@H](Cc1c[nH]c2ccccc12)NC(=O)[C@H](CCCCN)NC(=O)[C@H](CC(C)C)NC(=O)[C@H](CC(C)C)NC(=O)[C@H](Cc1ccccc1)NC(=O)[C@H](CCCCN)NC(=O)[C@H](CC(C)C)NC(=O)[C@@H](NC(=O)[C@H](Cc1ccccc1)NC(=O)[C@@H](N)Cc1ccccc1)C(C)C)C(C)C)C(=O)N[C@@H](CCC(=O)O)C(=O)N[C@@H](Cc1cnc[nH]1)C(=O)N[C@@H](CC(C)C)C(=O)N[C@@H](C)C(=O)N[C@H]1CSSC[C@@H](C(=O)O)NC(=O)[C@H](Cc2c[nH]c3ccccc23)NC(=O)[C@H](CC(N)=O)NC(=O)[C@H](CCCCN)NC(=O)[C@H](Cc2ccccc2)NC(=O)[C@H](CCCCN)NC1=O [FFVLKFLLKWAGKVGLEHLACKFKNWC]
MIC [1]: 0.465 µM (≈ 1.5 µg/mL)
MIC [2]: 3.87 µM (≈ 12.5 µg/mL)
MIC [3]: 1.94 µM (≈ 6.25 µg/mL)
MIC (Shigella dysenteriae): 0.465 µM (≈ 1.5 µg/mL)
MIC [4]: 3.87 µM (≈ 12.5 µg/mL)

Compound: CC[C@H](C)[C@@H]1NC(=O)[C@H](CCC(=O)O)NC(=O)[C@@H](NC(=O)[C@@H](NC(=O)[C@@H](NC(=O)[C@H](CCCCN)NC(=O)[C@@H]2CCCN2C(=O)[C@H](CC(C)C)NC(=O)[C@H](Cc2ccccc2)NC(=O)[C@H](CC(C)C)NC(=O)[C@@H]2CCCN2C(=O)[C@H](CC(C)C)NC(=O)[C@@H](N)Cc2ccccc2)[C@@H](C)CC)[C@@H](C)CC)CSSC[C@@H](C(=O)O)NC(=O)[C@H](CCCCN)NC(=O)[C@H](CCCCN)NC(=O)[C@H]([C@@H](C)O)NC1=O [FLPLFLPKIICEITKKC]
MIC (Candida glabrata 090902): 25 µM (≈ 50.1 µg/mL)
MIC [5]: ≥ 50 µM
MIC [6]: 25 µM (≈ 50.1 µg/mL)
MIC [7]: ≥ 50 µM
MIC [8]: 100 µM (≈ 200 µg/mL)

Compound: CC[C@H](C)[C@H](NC(=O)CN)C(=O)N[C@@H](CCSC)C(=O)N[C@@H](CO)C(=O)N[C@@H](CO)C(=O)N[C@@H](CC(C)C)C(=O)N[C@@H](CCSC)C(=O)N[C@@H](CCCCN)C(=O)N[C@@H](CCCCN)C(=O)N[C@@H](CC(C)C)C(=O)N[C@@H](CCCCN)C(=O)N[C@@H](CCCCN)C(=O)N[C@H](C(=O)N[C@H](C(=O)N[C@@H](CCCCN)C(=O)N[C@@H](CCCCN)C(N)=O)[C@@H](C)CC)[C@@H](C)CC [GIMSSLMKKLKKIIKK]
MIC (Bacillus subtilis 168): 7 µM (≈ 12.9 µg/mL)
MIC [9]: 6.3 µM (≈ 11.6 µg/mL)
MIC (Escherichia coli B): 22 µM (≈ 40.6 µg/mL)
MIC [10]: 3 µM (≈ 5.54 µg/mL)
MIC [11]: 7.1 µM (≈ 13.1 µg/mL)
MIC (Pseudomonas aeruginosa): 9.9 µM (≈ 18.3 µg/mL)
MIC (Staphylococcus aureus 1): 18 µM (≈ 33.2 µg/mL)
MIC [12]: 54 µM (≈ 99.7 µg/mL)
MIC (Staphylococcus aureus): 65 µM (≈ 120 µg/mL)
MIC [13]: 1.7 µM (≈ 3.14 µg/mL)

Compound: CC[C@H](C)[C@H](NC(=O)[C@H](CCCCN)NC(=O)[C@H](Cc1c[nH]c2ccccc12)NC(=O)[C@H](Cc1c[nH]c2ccccc12)NC(=O)[C@@H](NC(=O)[C@H](CCCCN)NC(=O)[C@H](Cc1c[nH]c2ccccc12)NC(=O)[C@@H](N)CC(C)C)[C@@H](C)CC)C(=O)N[C@@H](Cc1c[nH]c2ccccc12)C(=O)N[C@@H](CCCN=C(N)N)C(=O)N[C@H](C(=O)N[C@@H](Cc1c[nH]c2ccccc12)C(=O)N[C@@H](Cc1c[nH]c2ccccc12)C(=O)N[C@@H](CC(N)=O)C(=O)N[C@@H](Cc1c[nH]c2ccccc12)C(=O)N[C@@H](CCCN=C(N)N)C(=O)O)C(C)C [LWKIWWKIWRVWWNWR]
MIC [29]: ≥ 52.4 µM
MIC [30]: ≥ 52.4 µM
MIC [31]: ≥ 52.4 µM
MIC [32]: ≥ 52.4 µM

Further lines, results first:

MIC (Bacillus subtilis 168): 7 µM (≈ 12.6 µg/mL)
MIC [9]: 24 µM (≈ 43 µg/mL)
MIC (Escherichia coli B): 10 µM (≈ 17.9 µg/mL)
MIC [10]: 3 µM (≈ 5.38 µg/mL)
MIC [11]: 5 µM (≈ 8.97 µg/mL)
MIC (Pseudomonas aeruginosa): 8.9 µM (≈ 16 µg/mL)
MIC (Staphylococcus aureus 1): 4.3 µM (≈ 7.71 µg/mL)
MIC [12]: 17 µM (≈ 30.5 µg/mL)
MIC (Staphylococcus aureus): 10 µM (≈ 17.9 µg/mL)
MIC [13]: 2.2 µM (≈ 3.95 µg/mL)
Compound: CC[C@H](C)[C@H](NC(=O)CN)C(=O)N[C@@H](CC(C)C)C(=O)N[C@@H](CCCCN)C(=O)N[C@@H](CO)C(=O)N[C@@H](CC(C)C)C(=O)N[C@@H](CC(C)C)C(=O)N[C@@H](CCCCN)C(=O)N[C@@H](CCCCN)C(=O)N[C@@H](CC(C)C)C(=O)N[C@@H](CCCCN)C(=O)N[C@@H](CCCCN)C(=O)N[C@H](C(=O)N[C@H](C(=O)N[C@@H](C)C(=O)N[C@@H](CCCCN)C(N)=O)[C@@H](C)CC)[C@@H](C)CC [GILKSLLKKLKKIIAK]

MIC [14]: ≥ 2500 µM
MIC [15]: ≥ 2500 µM
MIC [16]: ≥ 2500 µM
MIC [17]: ≥ 2500 µM
MIC [18]: ≥ 2500 µM
MIC [19]: ≥ 2500 µM
MIC [20]: ≥ 2500 µM
MIC [21]: ≥ 2500 µM
MIC [22]: ≥ 2500 µM
MIC [23]: ≥ 2500 µM
MIC [24]: ≥ 2500 µM
MIC [25]: ≥ 2500 µM
MIC [26]: ≥ 2500 µM
Compound: CC[C@H](C)[C@H](N)C(=O)N[C@@H](CCCCN)C(=O)N[C@@H](CCC(N)=O)C(=O)NCC(=O)N[C@@H](CC(C)C)C(=O)N1CCC[C@H]1C(=O)N[C@@H](CCC(N)=O)C(=O)N[C@@H](CCC(=O)O)C(=O)O [IKQGLPQE]

MIC [27]: 8 µM (≈ 10.8 µg/mL)
MIC [28]: 12.5 µM (≈ 16.9 µg/mL)
MIC [3]: 16 µM (≈ 21.7 µg/mL)
MIC [11]: 8 µM (≈ 10.8 µg/mL)
MIC [8]: 16 µM (≈ 21.7 µg/mL)
Compound: CC(C)C[C@H](NC(=O)[C@H](CC(C)C)NC(=O)[C@H](CCCCN)NC(=O)[C@H](CCCCN)NC(=O)[C@H](Cc1c[nH]c2ccccc12)NC(=O)[C@H](Cc1c[nH]c2ccccc12)NC(=O)[C@H](CCCCN)NC(=O)[C@H](CC(C)C)NC(=O)[C@H](CC(C)C)NC(=O)[C@@H](N)CCCCN)C(N)=O [KLLKWWKKLL]

MIC [14]: ≥ 2500 µM
MIC [15]: ≥ 1250 µM
MIC [16]: ≥ 1250 µM
MIC [17]: ≥ 312 µM
MIC [18]: ≥ 2500 µM
MIC [19]: ≥ 2500 µM
MIC [11]: 64 µM (≈ 53.9 µg/mL)
MIC [20]: ≥ 2500 µM
MIC [21]: ≥ 2500 µM
MIC [22]: ≥ 2500 µM
MIC [23]: ≥ 1250 µM
MIC [24]: ≥ 156 µM
MIC [25]: ≥ 312 µM
MIC [26]: ≥ 1250 µM
Compound: CC(C)C[C@H](NC(=O)[C@H](CC(N)=O)NC(=O)[C@H](CCC(=O)O)NC(=O)[C@H](CC(N)=O)NC(=O)[C@H](CC(C)C)NC(=O)[C@@H](N)C(C)C)C(=O)N[C@@H](C)C(=O)N[C@@H](C)C(=O)O [VLNENLAA]

MIC [28]: 25 µM (≈ 24.5 µg/mL)
MIC [33]: 10.2 µM (≈ 9.99 µg/mL)
Compound: CC[C@H](C)[C@H](NC(=O)[C@H](CCCN=C(N)N)NC(=O)[C@H](CC(C)C)NC(=O)[C@H](CCCN=C(N)N)NC(=O)[C@@H](N)C(C)C)C(=O)N[C@@H](CCCN=C(N)N)C(=O)N[C@H](C(=O)N[C@@H](C)C(N)=O)C(C)C [VRLRIRVA]

Source: DBAASP
